From ChEMBL document CHEMBL1201862, “PubChem BioAssay data set” (2004)
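How tested: cells in 96-well plates exposed to compound for 48 hours at five concentrations. Here, GI50 denotes the concentration required for 50% inhibition of growth.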 Active and inactive are the calls of the source. Cut-off read from the data, not from the text of the source: active = GI50 up to about 1.1 µM and inactive = higher.

Legend:
Assay in all cases: NCI anticancer screen, dose series, 48 h
DMS-273 = test system: DMS-273
M19-MEL = test system: M19-MEL
KM-20L2 = test system: KM-20L2
LXFL 529 = test system: LXFL 529
XF498 = test system: XF498
SNB-78 = test system: SNB-78
HOP-18 = test system: HOP-18
DMS-114 = test system: DMS-114
RXF 631 = test system: RXF 631

| SMILES | GI50 (DMS-273) | GI50 (M19-MEL) | GI50 (KM-20L2) | GI50 (LXFL 529) | GI50 (XF498) | GI50 (SNB-78) | GI50 (HOP-18) | GI50 (DMS-114) | GI50 (RXF 631) |
| --- | --- | --- | --- | --- | --- | --- | --- | --- | --- |
| Nc1nc(O)c2c(ncn2CCO)n1 | > 100 µM (inactive) | > 100 µM (inactive) | > 100 µM (inactive) | > 100 µM (inactive) | > 100 µM (inactive) | > 100 µM (inactive) | > 100 µM (inactive) |  |  |
| Nc1ccn(C2CCC(CO)O2)c(=O)n1 (configuration not stated) | > 100 µM (inactive) | > 100 µM (inactive) | > 100 µM (inactive) |  | > 100 µM (inactive) | > 65.6 µM (inactive) | 98.9 µM (inactive) | > 100 µM (inactive) |  |
| NC1=NS(=O)(=O)Nc2nc(-c3ccccc3)c(-c3ccccc3)nc21 | > 100 µM (inactive) | > 100 µM (inactive) | > 100 µM (inactive) | > 100 µM (inactive) | > 100 µM (inactive) | > 100 µM (inactive) | > 100 µM (inactive) |  |  |
| Cc1cc(NCCCCCCCCNc2cc(C)nc3cc(N)ccc23)c2ccc(N)cc2n1 | 4.56 µM (inactive) | 15.5 µM (inactive) | 19 µM (inactive) | 11.3 µM (inactive) |  |  |  | 3.35 µM (inactive) |  |
| CC(C)(Br)C(=O)C(Br)Br | 12.6 µM (inactive) | 6.01 µM (inactive) | 18 µM (inactive) | 2.23 µM (inactive) | 11.6 µM (inactive) | 5.06 µM (inactive) |  | 5.36 µM (inactive) | 14 µM (inactive) |
| Fc1ccc(C2SCc3nc4ccccc4n32)c(F)c1 (configuration not stated) | 38 µM (inactive) | 65.5 µM (inactive) | > 100 µM (inactive) |  |  | 38.1 µM (inactive) | > 100 µM (inactive) | 31.8 µM (inactive) | 34.5 µM (inactive) |
| CCCCCCCCCCCCCCCCSS(C)(=O)=O | 27 µM (inactive) |  | 37.6 µM (inactive) | 8.75 µM (inactive) | 6.1 µM (inactive) |  | 58.7 µM (inactive) |  | 16.3 µM (inactive) |
| Cc1c(/C=N/NS(=O)(=O)c2ccccc2)no[n+]1[O-] |  |  | > 100 µM (inactive) | > 100 µM (inactive) |  |  | > 100 µM (inactive) | > 100 µM (inactive) |  |
| Cn1c(O)c(C(=O)NC2CCCCC2)c(=O)n(C)c1=S |  |  | 8.04 µM (inactive) | 2.78 µM (inactive) |  |  | 3.6 µM (inactive) |  | 4.91 µM (inactive) |
| Nc1nc2c(ncn2C2CCC(CO)O2)c(=O)n1C(=O)c1ccccc1 (configuration not stated) | > 100 µM (inactive) | > 100 µM (inactive) | > 100 µM (inactive) | > 100 µM (inactive) | > 100 µM (inactive) |  |  | > 100 µM (inactive) | > 100 µM (inactive) |
| CCOC(=O)C(=O)NNc1nc2c(s1)C(=O)c1ccccc1C2=O | 4.57 µM (inactive) | 0.544 µM (active) | 18.1 µM (inactive) | 1.82 µM (inactive) | 2.09 µM (inactive) | 2.54 µM (inactive) | 2.24 µM (inactive) | 1.76 µM (inactive) | 11.2 µM (inactive) |
| CCCCCCCCCC1C(C)c2c([nH]c3ccccc23)C2C(=O)N(c3ccccc3)C(=O)C21 (configuration not stated) | 12.5 µM (inactive) |  | 12.1 µM (inactive) | 35.6 µM (inactive) | 11.2 µM (inactive) | 21.4 µM (inactive) |  | 14.7 µM (inactive) | 3.05 µM (inactive) |
| O=C1CC(c2c(-c3ccccc3)[nH]c3ccccc23)C(=O)N1 (configuration not stated) | > 100 µM (inactive) | > 100 µM (inactive) | > 100 µM (inactive) | > 100 µM (inactive) | > 100 µM (inactive) | > 100 µM (inactive) |  | > 100 µM (inactive) | > 100 µM (inactive) |
| Cc1ccc(S(=O)(=O)N2c3ccccc3[C@H]3CCC=C[C@H]32)cc1 | 3.66 µM (inactive) | 4.68 µM (inactive) | 3.18 µM (inactive) | 9.55 µM (inactive) | 8.65 µM (inactive) | 19.2 µM (inactive) | 59.3 µM (inactive) | 3.12 µM (inactive) | 10.8 µM (inactive) |
| CC1NS(=O)(=O)N(C)C1=O (configuration not stated) | > 100 µM (inactive) | > 100 µM (inactive) |  | > 100 µM (inactive) | > 100 µM (inactive) | > 100 µM (inactive) |  | > 100 µM (inactive) | > 100 µM (inactive) |
| CC(C(=O)c1ccc(O)cc1)C1(O)C(=O)Nc2c(Cl)cc(Cl)cc21 (configuration not stated) | 70.5 µM (inactive) | 20.6 µM (inactive) | > 92.5 µM (inactive) | 26.9 µM (inactive) | 23.6 µM (inactive) | 46.8 µM (inactive) |  | 13.9 µM (inactive) | > 84.9 µM (inactive) |
| COC(=O)C(=C\Sc1ccccc1)/C=C/C(=O)OC(C)(C)C | 11.9 µM (inactive) | 10.8 µM (inactive) | 17.1 µM (inactive) | 3.5 µM (inactive) | 15 µM (inactive) | 15.1 µM (inactive) | 16.2 µM (inactive) | 11.2 µM (inactive) |  |
| C#CCNC(=O)NC(CCCCNC(=O)OCc1ccccc1)C(=O)OCc1ccccc1 (configuration not stated) | > 100 µM (inactive) | 11.3 µM (inactive) | > 100 µM (inactive) | > 100 µM (inactive) | 19.3 µM (inactive) | 23.9 µM (inactive) | 23 µM (inactive) | 40.7 µM (inactive) |  |
| CCOC(=O)C=C1CCC2(CC1)OCCO2 |  | > 100 µM (inactive) | > 100 µM (inactive) | > 100 µM (inactive) | > 100 µM (inactive) |  | > 100 µM (inactive) |  | > 100 µM (inactive) |
| COc1ccc2nc3c(C(=O)NCCN(C)C)cccc3nc2c1 | 4.42 µM (inactive) | 5.05 µM (inactive) |  |  |  | 7.16 µM (inactive) | 27.7 µM (inactive) | 5.82 µM (inactive) |  |
| N#Cc1c2nc3ccccc3nc2n2ccccc12 | > 100 µM (inactive) | > 100 µM (inactive) | > 100 µM (inactive) | > 100 µM (inactive) | > 100 µM (inactive) | > 100 µM (inactive) |  | > 100 µM (inactive) |  |
| CC(=O)OC1C/C(C)=C/[C@H](O)CC(C)/C=C/[C@@]2(C)CCC(C(C)(C)O)C12 (some centres not stated) | > 100 µM (inactive) | > 100 µM (inactive) | > 100 µM (inactive) | > 100 µM (inactive) | > 100 µM (inactive) | > 100 µM (inactive) | > 100 µM (inactive) | > 100 µM (inactive) | > 100 µM (inactive) |
| C#CCOCn1cnc2c(Sc3c([N+](=O)[O-])ncn3C)ncnc21 | > 100 µM (inactive) | > 100 µM (inactive) | > 100 µM (inactive) | 55.8 µM (inactive) | > 100 µM (inactive) |  |  | > 100 µM (inactive) | > 100 µM (inactive) |
| CC12OC3CC(O1)C1(C=O)C4CCC5(C)C(c6ccc(=O)oc6)CCC5(O)C4CCC1(C3)O2 (configuration not stated) | 0.0519 µM (active) | 0.258 µM (active) | 0.298 µM (active) | 0.139 µM (active) |  | 0.131 µM (active) | 0.252 µM (active) | 0.0414 µM (active) |  |
| Cc1ccc(O)c(C(=O)CCCC(=O)c2cc(C)ccc2O)c1 | 55.3 µM (inactive) | > 100 µM (inactive) | > 100 µM (inactive) | > 100 µM (inactive) | > 100 µM (inactive) | 55.8 µM (inactive) | > 100 µM (inactive) | 32.9 µM (inactive) |  |
| O=C1c2cccc(O)c2C(=O)c2cccc(O)c21 [ANTHRARUFIN] | > 100 µM (inactive) | > 100 µM (inactive) |  | > 100 µM (inactive) | > 100 µM (inactive) | > 100 µM (inactive) |  |  |  |
| CC1=C(/C=C/C(C)=C/C=C/C(C)=C/C(=O)O)C(C)(C)CCC1 [TRETINOIN] | > 100 µM (inactive) | > 100 µM (inactive) | > 100 µM (inactive) | > 100 µM (inactive) | > 100 µM (inactive) |  | > 100 µM (inactive) | > 100 µM (inactive) |  |
